Consider 4 compounds from patent US20020081665A1, “Bryostatins, bryopyrans and polyketides: compositions and methods” (priority 1999, published 2002).

The test system of data set [1] is B. neritina. The experiment in a line: gentamicin treatment of B. neritina larvae, bryostatin activity and growth of colonies. On the set-up: species or system Bugula neritina. As to conditions: about 100 micrograms per milliliter for about seven days post-settlement. On the procedure:
(§1) B. neritina larvae were treated with gentamicin at about 100 micrograms per milliliter for about seven days post-settlement, grown out for 3 months to re-establish their commensal bacterial flora, and then assayed for E. sertula levels and KSa levels by specific PCR and bryostatin activity by phorbol dibutyrate displacement (PdBu) assay (FIG. 7). The standard method for detecting bryostatins is the PdBu displacement assay (DeVries et al., 1988). Rat brain liposomes are incubated with tritiated PdBu, which binds to PKC in the liposomes. The liposomes are collected by filtration and counted in a scintillation counter. If an extract is added that contains a compound that can compete with phorbol for binding, less tritiated PdBu is bound. The assay has a subnanomolar detection limit for pure bryostatin 1 and is suitable for milligram quantities of sample. In B. neritina, the only compounds with PdBu activity are bryostatins, and PdBu activity is a good measure of total bryostatin activity.

The test system of data set [2] is E. sertula. Briefly: gentamicin treatment of B. neritina larvae, E. sertula and KSa levels by specific PCR. On the set-up: species or system Candidatus Endobugula sertula. As to conditions: about 100 micrograms per milliliter for about seven days post-settlement, grown out 3 months, vs untreated controls. As to the method: as §1
Data set [3] concerns lymphocytes. As to conditions: in vitro; cited from earlier work.
Data set [4] deals with human breast cancer cells. As to conditions: cited from earlier work.
For data set [5], the system named is lymphocytes. The conditions noted are these: cancer patients, intravenous administration; cited from earlier work.
The subject of data set [6] is melanoma. As to conditions: cited from earlier work; for side effects: compared with bryostatin 1, melanoma treatment; for effectiveness in treating melanoma: compared with bryostatin 1.

Consider gentamicin, for which the “bryozoan growth rates, treated versus untreated colonies” value in data set [1] is on record as “the same”. Besides, in data set [1] (grown out 3 months, vs untreated controls), the “bryostatin activity of treated colonies (PdBu assay)” value was “reduced”. The KSa levels entry in data set [2] (specific PCR) is “reduced dramatically”. In addition, in data set [2] (FIG. 7), the E. sertula population result is given as “reduced dramatically”.
As for `CCC/C=C/C=C/C(=O)O[C@H]1/C(=C/C(=O)OC)C[C@H]2C[C@H]([C@@H](C)O)OC(=O)C[C@H](O)C[C@@H]3C[C@H](OC(C)=O)C(C)(C)[C@](O)(C[C@@H]4C/C(=C/C(=O)OC)C[C@H](/C=C/C(C)(C)[C@]1(O)O2)O4)O3` [bryostatin 1], in data set [3], the “effect on lymphocytes in combination with IL-2” value is “enhances proliferation and IL-2 receptor expression on lymphocytes”. Moreover, the “sensitization to the cytotoxic effects of gemcitabine” value in data set [4] is reported as “sensitized human breast cancer cells to the cytotoxic effects of gemcitabine”. Moreover, in data set [5], the “effect on IL-2-induced lymphocyte activity in patients” value is “increased the potential of IL-2 to induce proliferation of LAK activity in lymphocytes”.
As to `COC(=O)/C=C1/C[C@H]2C[C@]3(O)O[C@H](C[C@@H](O)CC(=O)O[C@@H]([C@@H](C)O)C[C@H]4C/C(=C\C(=O)OC)[C@H](OC(C)=O)[C@@](O)(O4)C(C)(C)/C=C/[C@@H](C1)O2)C[C@H](OC(=O)CC(C)C)C3(C)C` [bryostatin 5], in data set [6], the side effects entry was “milder side effects” and the “effectiveness in treating melanoma” value was “as effective as bryostatin 1”.
As to bryostatin 8, in data set [6], the side effects entry is “milder side effects” and the “effectiveness in treating melanoma” value is “as effective as bryostatin 1”.
